Assays:
Experiment in all cases: Kinase profiling in a biochemical assay panel (mobility shift assays and ELISA), %-inhibition at 1 μM; selectivity entropy
[1] = target: panel of more than 300 wild-type and mutant kinases (313 kinase panel) (Homo sapiens, UniProt P29597)
[2] = target: panel of more than 300 wild-type and mutant kinases (313 kinase panel) (Homo sapiens, UniProt P49761)
[3] = target: panel of more than 300 wild-type and mutant kinases (313 kinase panel) (Homo sapiens, UniProt P53350)
[4] = target: panel of more than 300 wild-type and mutant kinases (313 kinase panel) (Homo sapiens, UniProt Q86V86)
[5] = target: T1, panel of more than 300 wild-type and mutant kinases (313 kinase panel) (Homo sapiens, UniProt Q96L34)
T1 sequence (Q96L34 1-752): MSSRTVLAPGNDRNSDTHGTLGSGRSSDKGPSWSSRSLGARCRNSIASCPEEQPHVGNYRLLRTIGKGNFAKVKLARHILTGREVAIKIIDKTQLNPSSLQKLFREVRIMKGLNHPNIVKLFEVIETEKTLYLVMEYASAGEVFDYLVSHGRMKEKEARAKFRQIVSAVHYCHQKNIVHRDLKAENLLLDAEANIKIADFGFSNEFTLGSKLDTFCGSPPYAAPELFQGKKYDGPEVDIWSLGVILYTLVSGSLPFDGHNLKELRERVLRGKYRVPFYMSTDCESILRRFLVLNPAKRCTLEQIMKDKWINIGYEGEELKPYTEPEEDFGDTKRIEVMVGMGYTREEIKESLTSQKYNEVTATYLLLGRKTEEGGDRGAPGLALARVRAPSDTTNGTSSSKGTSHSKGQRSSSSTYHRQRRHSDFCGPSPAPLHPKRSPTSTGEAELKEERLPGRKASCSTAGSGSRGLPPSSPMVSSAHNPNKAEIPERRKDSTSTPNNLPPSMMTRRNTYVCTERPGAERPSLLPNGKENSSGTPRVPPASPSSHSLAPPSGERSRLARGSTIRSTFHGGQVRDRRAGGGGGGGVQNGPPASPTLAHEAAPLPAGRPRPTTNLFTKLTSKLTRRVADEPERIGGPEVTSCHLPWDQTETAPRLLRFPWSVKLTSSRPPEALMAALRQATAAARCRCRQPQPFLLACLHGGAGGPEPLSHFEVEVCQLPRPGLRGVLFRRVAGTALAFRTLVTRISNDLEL

[6] = target: T2, panel of more than 300 wild-type and mutant kinases (313 kinase panel) (Homo sapiens, UniProt Q9NZJ5)
T2 sequence (Q9NZJ5 30-1116): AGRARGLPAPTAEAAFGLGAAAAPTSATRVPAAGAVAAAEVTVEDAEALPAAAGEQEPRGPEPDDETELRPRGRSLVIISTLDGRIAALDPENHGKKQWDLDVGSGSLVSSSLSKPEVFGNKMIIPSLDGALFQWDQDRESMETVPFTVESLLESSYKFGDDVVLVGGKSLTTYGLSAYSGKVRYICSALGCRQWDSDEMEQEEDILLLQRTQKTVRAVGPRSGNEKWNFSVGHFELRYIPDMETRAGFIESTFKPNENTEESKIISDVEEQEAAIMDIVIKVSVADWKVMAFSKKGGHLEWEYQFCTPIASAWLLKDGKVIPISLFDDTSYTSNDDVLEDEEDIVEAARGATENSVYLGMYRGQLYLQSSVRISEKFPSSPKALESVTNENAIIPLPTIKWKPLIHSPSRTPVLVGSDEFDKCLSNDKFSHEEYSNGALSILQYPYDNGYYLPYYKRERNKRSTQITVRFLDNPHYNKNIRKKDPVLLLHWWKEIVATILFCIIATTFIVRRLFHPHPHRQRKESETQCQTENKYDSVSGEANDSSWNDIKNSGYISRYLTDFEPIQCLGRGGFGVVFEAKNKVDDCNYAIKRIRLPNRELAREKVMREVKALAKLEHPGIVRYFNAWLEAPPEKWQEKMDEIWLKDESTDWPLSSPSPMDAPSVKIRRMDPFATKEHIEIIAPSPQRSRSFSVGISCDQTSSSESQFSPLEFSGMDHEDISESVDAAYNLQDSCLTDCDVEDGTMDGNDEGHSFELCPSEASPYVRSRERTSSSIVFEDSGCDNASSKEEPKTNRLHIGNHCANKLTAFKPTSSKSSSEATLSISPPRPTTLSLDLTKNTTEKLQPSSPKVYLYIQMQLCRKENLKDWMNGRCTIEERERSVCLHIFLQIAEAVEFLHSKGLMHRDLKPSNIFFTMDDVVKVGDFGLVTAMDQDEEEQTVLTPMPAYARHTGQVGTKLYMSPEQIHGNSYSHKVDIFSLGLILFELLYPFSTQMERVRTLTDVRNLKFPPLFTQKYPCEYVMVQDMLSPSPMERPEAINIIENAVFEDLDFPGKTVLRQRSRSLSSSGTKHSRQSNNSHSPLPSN

Chain of panel of more than 300 wild-type and mutant kinases (313 kinase panel) (Homo sapiens, UniProt P29597) (P29597 whole entry, change not shown): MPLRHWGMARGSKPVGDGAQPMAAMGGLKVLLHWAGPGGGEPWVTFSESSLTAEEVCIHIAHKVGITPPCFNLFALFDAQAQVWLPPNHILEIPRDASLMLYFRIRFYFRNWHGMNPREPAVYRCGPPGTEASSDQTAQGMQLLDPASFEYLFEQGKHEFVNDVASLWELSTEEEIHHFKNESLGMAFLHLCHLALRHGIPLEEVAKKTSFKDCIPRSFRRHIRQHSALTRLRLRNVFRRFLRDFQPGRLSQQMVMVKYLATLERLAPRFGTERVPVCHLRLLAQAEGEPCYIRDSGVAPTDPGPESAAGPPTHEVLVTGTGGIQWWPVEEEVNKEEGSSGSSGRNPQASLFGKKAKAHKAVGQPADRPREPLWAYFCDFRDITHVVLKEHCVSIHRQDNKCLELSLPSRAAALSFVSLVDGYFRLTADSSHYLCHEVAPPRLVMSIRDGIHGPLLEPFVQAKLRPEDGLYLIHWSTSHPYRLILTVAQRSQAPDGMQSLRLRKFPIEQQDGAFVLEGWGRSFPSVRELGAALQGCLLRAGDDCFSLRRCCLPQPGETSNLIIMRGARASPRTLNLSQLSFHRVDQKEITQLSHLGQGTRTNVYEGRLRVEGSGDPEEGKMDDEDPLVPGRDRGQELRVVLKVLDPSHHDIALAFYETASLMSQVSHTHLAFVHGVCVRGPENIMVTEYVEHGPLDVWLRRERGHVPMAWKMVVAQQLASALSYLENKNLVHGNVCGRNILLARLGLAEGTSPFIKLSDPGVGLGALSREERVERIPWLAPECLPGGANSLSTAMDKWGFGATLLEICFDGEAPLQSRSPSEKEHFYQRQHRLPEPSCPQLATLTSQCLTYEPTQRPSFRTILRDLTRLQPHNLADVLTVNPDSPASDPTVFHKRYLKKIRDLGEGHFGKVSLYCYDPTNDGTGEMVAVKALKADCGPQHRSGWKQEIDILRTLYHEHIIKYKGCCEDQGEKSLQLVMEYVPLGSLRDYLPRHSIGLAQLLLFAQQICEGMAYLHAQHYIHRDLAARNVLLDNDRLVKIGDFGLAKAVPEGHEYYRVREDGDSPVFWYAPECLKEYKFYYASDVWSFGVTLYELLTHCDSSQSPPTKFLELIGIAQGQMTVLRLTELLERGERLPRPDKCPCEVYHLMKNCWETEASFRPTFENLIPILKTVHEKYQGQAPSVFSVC
Chain of panel of more than 300 wild-type and mutant kinases (313 kinase panel) (Homo sapiens, UniProt P49761) (P49761 whole entry, change not shown): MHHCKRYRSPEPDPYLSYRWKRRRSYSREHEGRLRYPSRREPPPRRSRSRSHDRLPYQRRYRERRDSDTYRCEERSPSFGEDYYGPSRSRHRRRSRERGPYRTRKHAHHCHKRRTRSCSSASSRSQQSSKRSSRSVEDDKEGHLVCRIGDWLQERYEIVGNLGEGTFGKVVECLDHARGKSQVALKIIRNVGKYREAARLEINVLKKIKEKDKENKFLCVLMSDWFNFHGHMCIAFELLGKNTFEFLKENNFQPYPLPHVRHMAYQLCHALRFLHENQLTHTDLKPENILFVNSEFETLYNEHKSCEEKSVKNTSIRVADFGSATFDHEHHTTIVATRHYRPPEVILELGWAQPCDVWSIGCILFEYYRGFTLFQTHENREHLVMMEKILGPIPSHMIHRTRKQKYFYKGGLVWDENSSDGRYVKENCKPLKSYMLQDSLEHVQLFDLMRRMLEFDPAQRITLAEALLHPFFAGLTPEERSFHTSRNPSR

Row | SMILES | %-inhibition of TYK2 ([1]; kinase TYK2, compound at 1 μM) [%] | %-inhibition of CLK3 ([2]; kinase CLK3, compound at 1 μM) [%] | %-inhibition of PLK1 ([3]; kinase PLK1, 1 μM) [%] | %-inhibition of PIM3 ([4]; kinase PIM3, 1 μM) [%] | %-inhibition of MARK4 ([5]; kinase MARK4, compound at 1 μM) [%] | %-inhibition of PEK ([6]; kinase PEK, 1 μM) [%] | %-inhibition of PLK1 ([3]; 1 µM) [%] | %-inhibition of CLK3 ([2]; 1 µM) [%] | %-inhibition of TYK2 ([1]; 1 µM) [%] | %-inhibition of PIM3 ([4]; 1 µM) [%] | %-inhibition of MARK4 ([5]; 1 µM) [%] | %-inhibition of PEK ([6]; 1 µM) [%]
1 | CC(C)(C)c1nc(-c2cccc(NS(=O)(=O)c3c(F)cccc3F)c2F)c(-c2ccnc(N)n2)s1 [dabrafenib] | 10 | 17 | -9 | 9 | -27 |  |  |  |  |  |  | 
2 | CCCS(=O)(=O)Nc1ccc(F)c(C(=O)c2c[nH]c3ncc(-c4ccc(Cl)cc4)cc23)c1F [vemurafenib] | 6 | -14 | -4 | -5 | 3.78 | 11 |  |  |  |  |  | 
3 | CN(C)C/C=C/C(=O)Nc1cc2c(Nc3ccc(F)c(Cl)c3)ncnc2cc1O[C@H]1CCOC1 [afatinib] |  |  |  |  |  | 12 |  |  |  |  |  | 
4 | Cc1nc(Nc2ncc(C(=O)Nc3c(C)cccc3Cl)s2)cc(N2CCN(CCO)CC2)n1 [dasatinib] |  | 0.469 |  | -1.78 |  |  |  |  |  |  |  | 
5 | C[C@@H](Oc1cc(-c2cnn(C3CCNCC3)c2)cnc1N)c1c(Cl)ccc(F)c1Cl [crizotinib] | 21 | -5 | -3 | -4 | 51 | 1.1 |  |  |  |  |  | 
6 | Cc1ccc(C(=O)Nc2ccc(CN3CCN(C)CC3)c(C(F)(F)F)c2)cc1C#Cc1cnc2cccnn12 [ponatinib] | 66 |  | -6 |  | -2.58 | 65 |  |  |  |  |  | 
7 | O=S(=O)(c1cccc2cnccc12)N1CCCNCC1 [fasudil] | 6 | -0.753 | -8.49 | 3.45 | -21 | -7.4 |  |  |  |  |  | 
8 | COc1cc(Nc2c(C#N)cnc3cc(OCCCN4CCN(C)CC4)c(OC)cc23)c(Cl)cc1Cl [bosutinib] | -3.37 |  | 5 |  |  | 11 |  |  |  |  |  | 
9 | CO[C@H]1C[C@@H]2CC[C@@H](C)[C@@](O)(O2)C(=O)C(=O)N2CCCC[C@H]2C(=O)O[C@H]([C@H](C)C[C@@H]2CC[C@@H](OCCO)[C@H](OC)C2)CC(=O)[C@H](C)/C=C(\C)[C@@H](O)[C@@H](OC)C(=O)[C@H](C)C[C@H](C)/C=C/C=C/C=C/1C [everolimus] | -7 | -9 | 0.059 | -4 | -27 | 5.28 |  |  |  |  |  | 
10 | Cc1ccc(Nc2nccc(N(C)c3ccc4c(C)n(C)nc4c3)n2)cc1S(N)(=O)=O [pazopanib] | 5.31 | 0.791 | 1.15 | -4 | 9 | 2.38 |  |  |  |  |  | 
11 | CNC(=O)c1cc(Oc2ccc(NC(=O)Nc3ccc(Cl)c(C(F)(F)F)c3)c(F)c2)ccn1 [regorafenib] | -3.68 | -15 | -0.767 | -6.53 | -16 | 12 |  |  |  |  |  | 
12 | CC(=O)Nc1cccc(-n2c(=O)n(C3CC3)c(=O)c3c(Nc4ccc(I)cc4F)n(C)c(=O)c(C)c32)c1 [trametinib] | 2.16 | -0.0684 | -9 | 8.44 | -15 | 1.13 |  |  |  |  |  | 
13 | CCN(CC)CCNC(=O)c1c(C)[nH]c(/C=C2\C(=O)Nc3ccc(F)cc32)c1C [sunitinib] |  |  |  | 21 | 92 |  |  |  |  |  |  | 
14 | CO[C@H]1C[C@@H]2CC[C@@H](C)[C@@](O)(O2)C(=O)C(=O)N2CCCC[C@H]2C(=O)O[C@H]([C@H](C)C[C@@H]2CC[C@@H](OC(=O)C(C)(CO)CO)[C@H](OC)C2)CC(=O)[C@H](C)/C=C(\C)[C@@H](O)[C@@H](OC)C(=O)[C@H](C)C[C@H](C)/C=C/C=C/C=C/1C [temsirolimus] | -6.58 | -3 | -0.295 | -1.31 | -26 | 8 |  |  |  |  |  | 
15 | CS(=O)(=O)CCNCc1ccc(-c2ccc3ncnc(Nc4ccc(OCc5cccc(F)c5)c(Cl)c4)c3c2)o1 [lapatinib] | -10 | 0.469 |  | -3.44 | 10 | -0.193 | -2.71 |  |  |  |  | 
16 | COc1cc2c(Nc3ccc(Br)cc3F)ncnc2cc1OCC1CCN(C)CC1 [vandetanib] | -7 | -15 | -3.6 | -6 | 2.39 | 4.69 |  |  |  |  |  | 
17 | COc1cc2nccc(Oc3ccc(NC(=O)C4(C(=O)Nc5ccc(F)cc5)CC4)cc3)c2cc1OC [cabozantinib] | -3.68 | -1.24 | -2 | 0.402 | -9 | 79 |  |  |  |  |  | 
18 | N#CC[C@H](C1CCCC1)n1cc(-c2ncnc3[nH]ccc23)cn1 [ruxolitinib] |  |  | 25 | -9 | 53 | -0.459 |  | -2.14 |  |  |  | 
19 | Cc1cn(-c2cc(NC(=O)c3ccc(C)c(Nc4nccc(-c5cccnc5)n4)c3)cc(C(F)(F)F)c2)cn1 [nilotinib] |  | -10 | -2.41 |  | 12 | 0.387 |  |  | -1.71 | 13 |  | 
20 | C#Cc1cccc(Nc2ncnc3cc(OCCOC)c(OCCOC)cc23)c1 [erlotinib] |  |  |  |  |  |  | -10 | -0.469 | -2.7 | 0.333 | 14 | 1.35

Reference: paper PMC3961306, “Comparison of the Cancer Gene Targeting and Biochemical Selectivities of All Targeted Kinase Inhibitors Approved for Clinical Use” (PLoS ONE, 2014)
